Experimental data as given in patent US20240383910A1, “SMALL MOLECULE BTK DEGRADERS AND METHODS OF USE THEREOF” (Baylor College of Medicine, priority 2023, published 2024).

What was measured:
[1] = molecular target: T1, His-BTK (Homo sapiens, UniProt Q06187); assay: TR-FRET competition binding assay with BTK-BODIPY tracer; settings: TRFRET assay, up to 100 μM
T1 construct: purchased SignalChem B10-10H-10
Protocol: Panels a-b. […] Panel c. […] Panel d. […] Panel e. […] Panel f.
Time-resolved fluorescence resonance energy transfer (TR-FRET) assay was carried out to evaluate the binding of indicated compounds and BTK by competition with a BODIPY-FL labeled BTK tracer (See FIG. 1, BTK TR-FRET tracer). The assay was performed in 20 μL assay buffer (50 mM Tris, pH7.5, 0.1% Triton X-100, 0.01% BSA, and 1 mM DTT) with 0.3 nM Tb-anti-His (Cisbio, Cat. No. 61HI2TLA), 2 nM His-BTK (SignalChem, Cat. No. […] Unless specified otherwise, all assays were performed in triplicates. The assay mixtures were incubated at room temperature in the dark for 120 min, unless specified otherwise, and the signals were collected using a BioTek Synergy H1 microplate reader to measure the fluorescence emission ratio ([…]) of each well, using a 340-nm excitation filter, a 100-μs delay, and a 200-μs integration time. Raw data from the plate reader were used directly for analysis. The curve-fitting software GraphPad Prism 9 was used to generate graphs and curves and to determine IC50 values.
To measure the binding affinities between PROTACs and BTK, a time-resolved fluorescence resonance energy transfer (TR-FRET) competition binding assay was developed. A BTK tracer was synthesized by conjugating an ibrutinib-based reversible noncovalent binder with the BODIPY-FL dye (FIG. 1). […] In the presence of the BTK tracer, competition assays were performed to measure the binding affinities between BTK and its inhibitors and PROTACs. […] The very weak BTK binding affinities for PS-RC-1, PS-RC-2, PS-RC-3 and PS-RC-4 explain their minimal BTK degradation effects in cells and further support that the observed growth inhibitory effect of PS-RC-1 in Mino cells is unrelated to the BTK pathway.

[2] = molecular target: T2, IKZF1 (Homo sapiens, UniProt Q13422+Q96SW2); assay: Western blotting for IKZF1 in Mino cells; type: cell-based; settings: 24 h, Western blot, read-out: IKZF1-WB Endpoint DC50
T2 construct: host or cells: Mino
Protocol: (§1) Panel a. […] Panel b. […] Panel c. […] Panel d-e. […] Panel g.
After treatment, whole cell lysates for immunoblotting were prepared by pelleting Mino cells at 4° C. and 200×g for 5 minutes. […] Imaging was performed using the ECL Prime chemiluminescent Western blot detection reagents (Kindle Biosciences, Cat. No. R1100) by visualization of the blots with an Imager (Kindle Biosciences, Cat. No. D1001). All Western blots were subsequently processed and quantified with Imager software ImageJ and protein level was normalized to the B-actin loading controls.

[3] = molecular target: T3, IKZF3 (Homo sapiens, UniProt Q96SW2+Q9UKT9); assay: TMT-based quantitative proteomics in Mino cells, IKZF3; type: cell-based; settings: 200 nM, 4 h
T3 construct: host or cells: Mino
Protocol: as §1
(§2) Two million of Mino cells were treated with DMSO or 200 nM of PS-2 for 4 hours in biological triplicates and cells were harvested by centrifugation (200×g, 4° C., 5 min). Lysis buffer (100 mM Triethylammonium bicarbonate (TEAB, Thermo Fisher Scientific, Cat. No. 90114), 2% SDS) was added to the cell pellets and homogenized with a microtip sonicator (Branson) to achieve a cell lysate with a protein concentration of ˜2 mg mL^−1. Protein concentration was determined using BCA assay (Pierce, Cat. No. 23225) and normalized to 1 mg mL^−1. One hundred μg of protein for each sample were reduced and alkylated with 10 mM Tris(2-carboxyethyl) phosphine hydrochloride (TCEP, Sigma, Cat. No. C4706) and 17 mM iodoacetamide (IAA, Sigma, Cat. No. 16125-5G), followed by digestion with trypsin (1:20, enzyme: protein, Thermo Fisher Scientific, Cat. No. 90058) for 16 h shaking at 37° C. […]
(§3) Next, tandem mass tagging (TMT)-based quantitative proteomic profiling was performed to evaluate the degradation specificity of PS-2. […] Quantitative proteomics employing TMT chemical labeling coupled with LC/MS/MS enabled the detection of >2,500 unique proteins without fractionation (FIG. 4f). […]

[4] = molecular target: T2, IKZF1; assay: TMT-based quantitative proteomics in Mino cells, IKZF1; type: cell-based; settings: 200 nM, 4 h
Protocol: as §1, §2, §3

[5] = molecular target: T4, BTK-Hibit (Homo sapiens, UniProt Q06187); assay: BTK degradation in BTK-Hibit knock-in Ramos cells; type: cell-based; settings: 24 hours
T4 construct: endogenous in cells; host or cells: Ramos (BTK-Hibit knock-in)
Protocol: (§4) Ramos cells were treated with the indicated compounds at the indicated concentrations for 24 hours. Nurix and DD-03-171 were used as the controls.
(§5) To further illustrate the BTK degradation ability of PS-2, BTK-Hibit knock-in Ramos cells were treated with PS-2 for 24 hours, using Nurix and DD-03171 as controls (FIG. 6).

[6] = molecular target: T5, BTK-Hibit (Homo sapiens, UniProt Q06187+Q96SW2); assay: BTK degradation in BTK-Hibit knock-in Ramos cells; type: cell-based; settings: 24 hours
T5 construct: endogenous in cells; host or cells: Ramos (BTK-Hibit knock-in)
Protocol: as §4, §5

[7] = tested on: Mino cells; assay: cells; settings: Homo sapiens, 72 h, read-out: IC50, cell growth inhibition / cell viability, Mino cells, 72 h
Source text: The cell viabilities were quantified using an Alarma Blue assay.
Dataset represents an average of n=3 replicates.

[8] = molecular target: T6, BTK (Homo sapiens, UniProt Q06187); assay: TMT-based quantitative proteomics in Mino cells, BTK; type: cell-based; design: host or cells: Mino; settings: 200 nM, 4 h
Protocol: as §1, §2, §3

[9] = molecular target: T6, BTK; assay: BTK ligand competition assay in Ramos cells (Western blotting for BTK); type: cell-based; design: host or cells: Ramos; settings: 100 nM, 24 hours, Western blot
Protocol: Ramos cells were incubated overnight, and then the indicated compounds were added and incubated for 24 hours, followed by Western blotting for BTK degradation.
Ramos cells were incubated overnight, and then the indicated compounds were added and incubated for 24 hours, followed by Western blotting for BTK degradation (FIG. 7).

T6 sequence (Q06187 whole entry): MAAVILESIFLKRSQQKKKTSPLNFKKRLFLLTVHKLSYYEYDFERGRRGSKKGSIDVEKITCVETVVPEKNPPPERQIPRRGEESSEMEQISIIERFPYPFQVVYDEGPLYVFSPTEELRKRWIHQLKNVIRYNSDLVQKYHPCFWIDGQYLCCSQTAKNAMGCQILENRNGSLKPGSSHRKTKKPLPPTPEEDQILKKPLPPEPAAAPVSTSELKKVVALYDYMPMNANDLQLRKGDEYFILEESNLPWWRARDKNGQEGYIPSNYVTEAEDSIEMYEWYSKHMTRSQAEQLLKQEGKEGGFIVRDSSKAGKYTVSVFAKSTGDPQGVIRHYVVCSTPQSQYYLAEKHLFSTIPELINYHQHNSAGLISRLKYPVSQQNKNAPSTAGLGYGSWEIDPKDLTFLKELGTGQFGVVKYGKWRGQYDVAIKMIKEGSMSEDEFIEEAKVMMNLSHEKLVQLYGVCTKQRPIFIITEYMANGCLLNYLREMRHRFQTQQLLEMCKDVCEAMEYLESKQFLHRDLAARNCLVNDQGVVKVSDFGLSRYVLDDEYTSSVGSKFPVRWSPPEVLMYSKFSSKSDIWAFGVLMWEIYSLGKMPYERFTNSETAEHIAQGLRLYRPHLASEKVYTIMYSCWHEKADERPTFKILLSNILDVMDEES
T2 sequence (Q13422 whole entry): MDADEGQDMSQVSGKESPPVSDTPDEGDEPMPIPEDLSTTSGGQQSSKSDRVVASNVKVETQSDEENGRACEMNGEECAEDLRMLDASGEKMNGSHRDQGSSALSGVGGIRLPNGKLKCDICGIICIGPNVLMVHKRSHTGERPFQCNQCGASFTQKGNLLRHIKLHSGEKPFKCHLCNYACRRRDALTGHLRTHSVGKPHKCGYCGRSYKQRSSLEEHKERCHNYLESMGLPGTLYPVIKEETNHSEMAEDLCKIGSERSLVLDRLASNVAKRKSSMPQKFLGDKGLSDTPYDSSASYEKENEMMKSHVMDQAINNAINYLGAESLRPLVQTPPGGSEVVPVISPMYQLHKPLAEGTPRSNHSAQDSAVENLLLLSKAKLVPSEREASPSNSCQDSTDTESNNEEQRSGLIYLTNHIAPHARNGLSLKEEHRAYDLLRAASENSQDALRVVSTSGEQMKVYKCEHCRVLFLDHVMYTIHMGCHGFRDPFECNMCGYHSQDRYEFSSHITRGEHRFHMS
T2 sequence (Q96SW2 whole entry): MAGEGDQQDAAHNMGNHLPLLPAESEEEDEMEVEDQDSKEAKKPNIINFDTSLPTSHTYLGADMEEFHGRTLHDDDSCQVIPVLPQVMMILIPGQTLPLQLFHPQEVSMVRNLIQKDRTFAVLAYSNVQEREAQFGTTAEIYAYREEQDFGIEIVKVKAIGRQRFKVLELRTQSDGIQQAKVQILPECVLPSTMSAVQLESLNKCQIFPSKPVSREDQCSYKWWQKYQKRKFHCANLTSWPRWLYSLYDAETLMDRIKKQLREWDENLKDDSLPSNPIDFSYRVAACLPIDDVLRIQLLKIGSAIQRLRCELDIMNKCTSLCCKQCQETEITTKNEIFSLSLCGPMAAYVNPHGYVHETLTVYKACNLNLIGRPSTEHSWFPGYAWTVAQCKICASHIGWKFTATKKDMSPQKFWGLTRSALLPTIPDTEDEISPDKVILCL
T2 sequence (Q16531 whole entry partner): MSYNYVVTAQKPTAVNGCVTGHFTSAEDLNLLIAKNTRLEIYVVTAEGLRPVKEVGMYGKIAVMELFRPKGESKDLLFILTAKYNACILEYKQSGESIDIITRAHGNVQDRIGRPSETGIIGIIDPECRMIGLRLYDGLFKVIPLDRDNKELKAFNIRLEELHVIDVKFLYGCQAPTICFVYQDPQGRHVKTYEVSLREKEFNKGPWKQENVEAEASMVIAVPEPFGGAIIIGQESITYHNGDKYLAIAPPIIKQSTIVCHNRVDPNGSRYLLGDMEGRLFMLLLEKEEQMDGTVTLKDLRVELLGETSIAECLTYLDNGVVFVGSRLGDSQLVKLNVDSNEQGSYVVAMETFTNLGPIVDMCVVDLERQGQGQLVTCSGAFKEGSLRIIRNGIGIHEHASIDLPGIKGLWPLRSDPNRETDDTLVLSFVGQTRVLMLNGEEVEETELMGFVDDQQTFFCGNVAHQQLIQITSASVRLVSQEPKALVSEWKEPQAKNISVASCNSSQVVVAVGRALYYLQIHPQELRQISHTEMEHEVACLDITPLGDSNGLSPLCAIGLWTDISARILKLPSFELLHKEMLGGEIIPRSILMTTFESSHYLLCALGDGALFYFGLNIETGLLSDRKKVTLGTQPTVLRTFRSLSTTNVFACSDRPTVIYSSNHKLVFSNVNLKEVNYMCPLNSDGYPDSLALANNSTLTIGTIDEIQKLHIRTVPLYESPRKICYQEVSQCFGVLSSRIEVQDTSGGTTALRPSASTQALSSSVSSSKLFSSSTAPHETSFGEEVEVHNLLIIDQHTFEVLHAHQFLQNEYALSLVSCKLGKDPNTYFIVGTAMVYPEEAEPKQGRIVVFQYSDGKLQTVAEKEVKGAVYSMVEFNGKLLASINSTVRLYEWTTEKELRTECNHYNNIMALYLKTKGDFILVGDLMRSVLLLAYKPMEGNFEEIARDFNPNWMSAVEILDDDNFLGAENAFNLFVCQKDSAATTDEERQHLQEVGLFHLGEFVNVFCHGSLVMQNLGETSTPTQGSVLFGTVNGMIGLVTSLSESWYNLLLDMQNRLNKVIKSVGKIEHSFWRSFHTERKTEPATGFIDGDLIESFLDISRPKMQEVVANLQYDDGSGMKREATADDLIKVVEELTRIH
T1 sequence (Q06187 whole entry): as the sequence (Q06187 whole entry) above
T3 sequence (Q9UKT9 whole entry): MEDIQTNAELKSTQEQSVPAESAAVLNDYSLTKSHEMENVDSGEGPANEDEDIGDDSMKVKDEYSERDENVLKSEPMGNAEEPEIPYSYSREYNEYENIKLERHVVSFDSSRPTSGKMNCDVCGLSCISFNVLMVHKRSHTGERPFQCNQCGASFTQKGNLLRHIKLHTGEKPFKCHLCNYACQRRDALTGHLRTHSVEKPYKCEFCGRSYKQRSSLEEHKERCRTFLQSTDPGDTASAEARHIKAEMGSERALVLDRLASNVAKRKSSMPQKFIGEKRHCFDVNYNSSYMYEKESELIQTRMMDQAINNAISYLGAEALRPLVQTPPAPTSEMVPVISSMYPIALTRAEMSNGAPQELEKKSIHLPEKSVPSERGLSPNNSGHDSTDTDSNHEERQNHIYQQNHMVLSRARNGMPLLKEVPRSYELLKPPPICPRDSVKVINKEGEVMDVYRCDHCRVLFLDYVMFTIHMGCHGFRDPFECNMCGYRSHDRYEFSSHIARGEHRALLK
T3 sequence (Q96SW2 whole entry): as the sequence (Q96SW2 whole entry) above
T3 sequence (Q16531 whole entry partner): as the sequence (Q16531 whole entry partner) above
T5 sequence (Q06187 2-659 limits assumed): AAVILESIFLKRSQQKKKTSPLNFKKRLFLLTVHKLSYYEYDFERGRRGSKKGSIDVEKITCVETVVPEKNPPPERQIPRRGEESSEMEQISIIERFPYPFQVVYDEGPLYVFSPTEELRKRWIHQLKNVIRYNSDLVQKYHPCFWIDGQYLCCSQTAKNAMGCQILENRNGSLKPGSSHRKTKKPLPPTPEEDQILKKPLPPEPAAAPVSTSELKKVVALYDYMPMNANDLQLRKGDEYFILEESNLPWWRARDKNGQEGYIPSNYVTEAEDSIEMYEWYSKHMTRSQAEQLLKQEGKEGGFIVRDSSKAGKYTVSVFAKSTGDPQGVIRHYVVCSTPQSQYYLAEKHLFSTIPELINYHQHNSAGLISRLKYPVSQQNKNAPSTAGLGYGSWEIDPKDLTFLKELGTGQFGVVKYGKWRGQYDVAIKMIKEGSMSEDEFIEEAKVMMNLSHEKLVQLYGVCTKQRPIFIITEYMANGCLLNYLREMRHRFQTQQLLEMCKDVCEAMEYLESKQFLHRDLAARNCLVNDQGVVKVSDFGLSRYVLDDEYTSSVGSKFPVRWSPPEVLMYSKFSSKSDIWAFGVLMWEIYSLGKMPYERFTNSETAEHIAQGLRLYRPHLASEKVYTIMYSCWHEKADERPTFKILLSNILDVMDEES
T5 sequence (Q96SW2 whole entry): as the sequence (Q96SW2 whole entry) above
T5 sequence (Q16531 whole entry partner): as the sequence (Q16531 whole entry partner) above
T4 sequence (Q06187 2-659 limits assumed): as the sequence (Q06187 2-659 limits assumed) above
T4 sequence (Q96SW2 whole entry, further chain): as the sequence (Q96SW2 whole entry) above
T4 sequence (Q16531 whole entry partner): as the sequence (Q16531 whole entry partner) above

With `O=C1CCC(N2C(=O)c3cccc(NCC(=O)N4CCN(c5ccc(Nc6nccc(Oc7ccccc7)n6)cc5)CC4)c3C2=O)C(=O)N1` (stereo not drawn) [PS-2, 2-(2,6-Dioxopiperidin-3-yl)-4-((2-oxo-2-(4-(4-((4-phenoxypyrimidin-2-yl)amino)phenyl)piperazin-1-yl)ethyl)amino)isoindoline-1,3-dione] the “binding to BTK (result in words)” value [1] was “almost no binding to BTK”, the DC50 [2] was 28 nM and the “degradation of IKZF3” value [3] was over 60%. The “degradation of IKZF1” value [4] was about 50%, the DC50 [5] was 3.75 nM and the Dmax [6] was 84.7%. For the same molecule, the IC50 [7] was 77 nM, the “BTK protein level change” value [8] was “downregulated” and the “BTK degradation at 100 nM” value [9] was “Most BTK protein was degraded”.
